Experimental data as given in article PMC6273765, “Synthesis and Biological Evaluation of Novel Aromatic Imide-Polyamine Conjugates” (Molecules, 2016).
Counter-ions that a name gives are not always drawn.

Experiments:
[1] = system: HepG2 cells; test: MTT cytotoxicity, HepG2; type: cell-based, human; details: mean of three experiments
[2] = system: K562 cells; test: MTT cytotoxicity, K562; type: cell-based, human; details: mean of three experiments
[3] = system: QSG-7701 cells; test: MTT cytotoxicity, QSG-7701 normal hepatocyte; type: cell-based; details: normal hepatocyte cell line
[4] = system: HCT-116 cells; test: MTT cytotoxicity, HCT-116; type: cell-based, human; details: mean of three experiments
[5] = system: MDA-MB-231 cells; test: MTT cytotoxicity, MDA-MB-231; type: cell-based; details: Homo sapiens, 48 h, mean of three experiments
[6] = system: HepG2 cells; test: Apoptosis by AO/EB staining (HCS); type: cell-based, human; details: HepG2, 3, 6, 12 μM, 48 h
Source text: To appraise if novel naphthalimide-polyamine conjugates induce cell apoptosis, morphological study was applied after HepG2 cells were stained with AO/EB. […] To furnish more credible information about the apoptosis of HepG2 cells induced by compound 11e, we used the high content screening (HCS) technique to detect related apoptosis indicators. Mitochondria are vital cell organelles in the process of transmitting apoptosis signals, whereas the mitochondrial membrane potential (MMP) is a critical parameter related to mitochondrial function in cells. As a MMP specific cationic fluorescent dye, Rh123 is used to measure the change of MMP, which accumulates in healthy mitochondria with intact membrane potential and is absent in the depolarized mitochondria. […] Thus, the lysosomal mass/pH (Lys/pH) variation was detected by a basic fluorescent probe Lyso-Tracker Red which selectively accumulates in acidic lysosomes during cytotoxicity occurs.
HepG2 cells were seeded in 96 well plates (6 × 10^3 cells/well), cultured for 24 h to obtain a confluent monolayer and then treated with various concentrations of tested compounds for 48 h. […] Images were obtained on the High Content Screening (HCS, ArrayScan, Thermo Scientific) reader using the Target Activation BioApplication software (Thermo Scientific).

[7] = system: H22 mouse hepatocellular carcinoma; test: Subcutaneous H22 solid tumor growth inhibition; type: in vivo, Kunming mice; details: 11e 1 mg/kg, amonafide 5 mg/kg; for Inhibition Rate (tumor weight) / Tumor Weight: caudal vein, 7 consecutive days; for Inhibition Rate (tumor weight): vs normal saline; for Tumor Weight: control 2.17 ± 0.22 g; for No. Dead: solid tumor model
Source text: However, few in vivo studies provided limited messages for rational design of the conjugates in comparison to the plentiful in vitro data. Indeed, there are significant discrepancies between in vitro and in vivo experiments in many cases. In vivo trials, based on preliminary in vitro screens, provide more valuable messages for further drug development. To further evaluate the antitumor activity of 11e in vivo, we chose three H22 (mice hepatoma cell line) tumor transplant models: solid tumor (tumor growth inhibition evaluation), ascites tumor (live time evaluation), and pulmonary metastasis tumor (tumor metastasis evaluation).
All animal care and experimentation conformed to the Guide for the Care and Use of Laboratory Animals published by Henan University (HUSOM2016-162). For solid tumor development, 30 male Kunming mice (Laboratory Animal Center of Henan, Zhengzhou, China) aged 5 weeks (weighing 18–22 g) were injected subcutaneously with 2 × 10^6 H22 cells. […] On day 16, the mice were killed by cervical vertebra dislocation, and solid tumors were removed and weighed. The inhibitory rate was calculated as follows: inhibitory rate (%) = [(A − B)/A] × 100, where A was the mean tumor weight of the control group and B was that of the drug treated or positive group.

[8] = system: HepG2 cells; test: Mitochondrial membrane potential, Rh123 (HCS); type: cell-based, human; details: HepG2, 3, 6, 12 μM, 48 h
Source text: (§1) To appraise if novel naphthalimide-polyamine conjugates induce cell apoptosis, morphological study was applied after HepG2 cells were stained with AO/EB. […] To furnish more credible information about the apoptosis of HepG2 cells induced by compound 11e, we used the high content screening (HCS) technique to detect related apoptosis indicators. Mitochondria are vital cell organelles in the process of transmitting apoptosis signals, whereas the mitochondrial membrane potential (MMP) is a critical parameter related to mitochondrial function in cells. As a MMP specific cationic fluorescent dye, Rh123 is used to measure the change of MMP, which accumulates in healthy mitochondria with intact membrane potential and is absent in the depolarized mitochondria. Lysosomes, as cellular targets in cancer therapy, participate in various cell death profiles such as apoptosis and senescence. Thus, the lysosomal mass/pH (Lys/pH) variation was detected by a basic fluorescent probe Lyso-Tracker Red which selectively accumulates in acidic lysosomes during cytotoxicity occurs.
(§2) HepG2 cells were seeded in 96 well plates (6 × 10^3 cells/well), cultured for 24 h to obtain a confluent monolayer, and then treated with various concentrations of tested compounds for 48 h. […] Images were acquired on the ArrayScan HCS reader using the Target Activation BioApplication software.

[9] = system: HepG2 cells; test: Lysosomal mass/pH, Lyso-Tracker Red (HCS); type: cell-based, human; details: HepG2, 3, 6, 12 μM, 48 h
Source text: as §1, §2

[10] = system: HepG2 cells; test: ROS generation, DCFH-DA (HCS); type: cell-based, human; details: HepG2, 3, 6, 12 μM, 48 h
Procedure: It is known that polyamine conjugates may produce reactive oxygen species (ROS). The elevated ROS could bring corresponding influences on MMP loss and LYS/pH destabilization, which generally activates the cell death. Therefore, the ROS generation was detected by the DCFH-DA (2′,7′-dichlorodihydrofluorescein diacetate) experiment.
HepG2 cells were seeded in 96 well plates (6 × 10^3 cells/well), cultured for 24 h to obtain a confluent monolayer, and then treated with various concentrations of tested compounds for 48 h. Cells were incubated with Rh123 (0.25 nM), or DCFH-DA (10 μM), or Lyso-Tracker Red (50 nM ) in the dark at 37 °C for 30 min. for the measurement of mitochondrial membrane potential (MMP), or reactive oxygen species (ROS) or lysosomal mass/pH staining, respectively. After being washed with PBS to remove excess dyes, cells were further stained with the nuclear dye Hoechst 33,342 (10 μM) in the dark at 37 °C for 20 min. Images were acquired on the ArrayScan HCS reader using the Target Activation BioApplication software.

[11] = system: H22 cells; test: Survival time in mice bearing H22 cells (ascites); type: in vivo, Kunming mice; details: 11e 1 mg/kg, amonafide 5 mg/kg i.v.; for median survival time (MST): 7 consecutive days, control 12.75 ± 2.5 days
Procedure: Impacts of 11e on survival time in H22-bearing mice were evaluated by measuring the extension of the lifespan. The median survival time (MST) in control mice was (12.75 ± 2.5) days.
For calculation of the survival time, 30 male Kunming mice were inoculated via intraperitoneal (i.p.) injection with 1 × 10^6 H22 cells/mouse on day 0 and were randomly divided into three groups. […] The median survival time (MST) for each group was observed, and the antitumor activity of the drug was evaluated by measuring the increase of the lifespan. The extended lifespan rate was calculated as follows: extend rate (%) = (MST treated group/MST control group) × 100.

[12] = system: H22 cells lung metastasis; test: H22 lung metastasis model; type: in vivo, Kunming mice; details: 11e 1 mg/kg; for Metastatic Focus (No.) / Inhibition Rate (lung metastasis): amonafide 5 mg/kg i.v., 7 consecutive days; for Metastatic Focus (No.): control 110.04 ± 15.38; for No. Dead: amonafide 5 mg/kg, lung metastasis model; for Inhibition Rate (lung metastasis): vs normal saline
Source text: Metastasis is the process by which tumors spread from the primary organ in which they arise to other sites in the body. In most cases, tumors that stay confined to one organ will not be fatal, tumors that have spread to other organs have a greater potential for causing harm. To test whether 11e was effective against an established lung metastasis, we injected H22 cells intravenously into 24 Kunming mice (5 × 10^6 cells each mouse). To ensure that all mice bore actively growing lung tumors before the drug treatment, pulmonary cancer was allowed to develop for 10 days.
H22 cells (5 × 10^6 cells per mouse) for Kunming mice were injected intravenous (i.v.) through the tail vein for tumor passive metastasis. To ensure all mice bore actively growing lung tumors before the drug treatment, pulmonary metastasis was allowed to develop for 10 days. […] On day 18, mice were killed by cervical vertebra dislocation, and lungs were removed and weighed, and then fixed in Bouin’s fluid. After the lungs were fixed, lung metastases nodus was numbered.

[13] = Systemic toxicity (body weight, organ index); details: 11e 1 mg/kg, amonafide 5 mg/kg i.v.
Procedure: However, there are few reports about the systemic toxicology of naphthalimide-polyamine conjugates to support the above hypothesis. […] At the same time, the body weight was monitored to detect the dose-limited toxicity. On day 8, these mice were killed by cervical vertebra, and the organs and tissues, including samples of heart, liver, lung, kidney, spleen and thymus, were taken for the inspection of systemic toxicity.
Mice (8 per group) received 11e (1 mg/kg) and amonfide (5 mg/kg, i.v.) for 7 consecutive days and then were sacrificed. Heart, liver, kidney, lung and spleen were removed and weighed. The organ index was investigated for systemic toxicity evaluation: organ index (%) = (organ weight/body weight) × 100.

Row | Molecule | IC50 ([1]; Homo sapiens, HepG2, 48 h) | IC50 ([2]; Homo sapiens, K562, 48 h) | IC50 ([3]; QSG7701, 48 h) | IC50 ([4]; Homo sapiens, HCT-116, 48 h) | IC50 [5] | other results
1 | NCCCCNCCCCNCCCCN1C(=O)c2ccc(-c3ccccc3)cc2C1=O [17d, 5-Phenyl-2-{4-[4-(4-aminobutylamino)-butylamino]butyl}isoindoline-1,3-dione trihydrochloride] | > 50 µM | > 50 µM | > 50 µM | > 50 µM |  | 
2 | NCCCNCCCCNCCCN1C(=O)c2ccc(-c3ccccc3)cc2C1=O [17c, 5-Phenyl-2-{3-[4-(3-aminopropylamino)-amino]propyl}isoindoline-1,3-dione trihydrochloride] | > 50 µM | > 50 µM | > 50 µM | > 50 µM |  | 
3 | NCCCNCCCNCC(=O)NCCCN1C(=O)c2cccc3cccc(c23)C1=O [11b, 2-(3-(3-Aminopropylamino)propylamino)-N-(3-(1,3-dioxo-1H-benzo[de]isoquinolin-2(3H)-yl)propyl)acetamide trihydrochloride] | > 50 µM | 28 µM | 42.9 µM | > 50 µM | 16.8 µM | 
4 | NCCCNCC(=O)NCCCN1C(=O)c2cccc3cccc(c23)C1=O [11a, 2-(3-Aminopropylamino)-N-(3-(1,3-dioxo-1H-benzo[de]isoquinolin-2(3H)-yl)propyl)acetamide dihydrochloride] | 53.5 µM | 33.2 µM | 39.2 µM | 39.9 µM | 32.4 µM | 
5 | NCCCNCCCNCCCN1C(=O)c2ccc(-c3ccccc3)cc2C1=O [17b, 5-Phenyl-2-{3-[3-(3-aminopropylamino)-propylamino]propyl}isoindoline-1,3-dione trihydrochloride] | > 50 µM | 28.2 µM | > 50 µM | > 50 µM |  | 
6 | CC(=O)c1ccc2c3c(cccc13)C(=O)N(CCCCNCCCCNCCCCN)C2=O [5f, 2-{4-[4-(4-Aminobutylamino)butylamino]butyl}-6-acetyl-1H-benz[de]isoquinoline-1,3(2H)-dione trihydrochloride] | 30.7 µM | 18.8 µM | 21.2 µM | 19.6 µM |  | 
7 | CC(=O)c1ccc2c3c(cccc13)C(=O)N(CCCCNCCCCN)C2=O [5d, 2-[(2-Dimethylamino)ethyl-[4-(4-aminobutylamino)butyl]-6-acetyl-1H-benz[de]isoquinoline-1,3(2H)-dione dihydrochloride] | 23.9 µM | 31.1 µM | 23.2 µM | 22.9 µM |  | 
8 | 2-{3-[4-(3-Aminopropylamino)butylamino]butyl}-6-acetyl-1H-benz[de]isoquinoline-1,3(2H)-dione trihydrochloride [5e] |  |  |  |  |  | IC50 ([1]; 48 h): 22.1 µM; IC50 ([2]; 48 h): 12.2 µM; IC50 ([3]; 48 h): 27.7 µM; IC50 ([4]; 48 h): 16.9 µM
9 | NCCCCNCCCCNCCCCNCC(=O)NCCCN1C(=O)c2cccc3cccc(c23)C1=O [11f, 2-(4-(4-(4-Aminobutylamino)butylamino)butylamino)-N-(3-(1,3-dioxo-1H-benzo[de]isoquinolin-2(3H)-yl)propyl)acetamide tetrahydrochloride] | > 50 µM | 26.2 µM | 50.6 µM | > 50 µM | 57.1 µM | 
10 | Cl.Cl.Cl.Cl.NCCCNCCCCNCCCNCC(=O)NCCCN1C(=O)c2cccc3cccc(c23)C1=O [11e, 2-(3-(4-(3-Aminopropylamino)butylamino)propylamino)-N-(3-(1,3-dioxo-1H-benzo[de]isoquinolin-2(3H)-yl)propyl)acetamide tetrahydrochloride] | 6.33 µM | 2.86 µM | 53.9 µM | 5.12 µM | 12 µM | apoptosis induction (AO/EB) [6]: obvious apoptosis; Inhibition Rate (tumor weight) [7]: 70.92%; Tumor Weight [7]: 0.63 ± 0.21 g; No. Dead [7]: 0/9; green fluorescence of Rh123 (MMP) [8]: significantly decreased in a dose-dependent manner; Lyso-Tracker Red fluorescence (lysosomal mass/pH) [9]: remarkable accruement of red fluorescence; ROS generation (DCFH-DA) [10]: apparently increased ROS; life span increase vs control group [11]: 2.41 fold; median survival time (MST) [11]: 30.75 ± 4.4 days; Metastatic Focus (No.) [12]: 40.25 ± 8.15; No. Dead [12]: 0/8
11 | CN(C)CCN1C(=O)c2cccc3cc(N)cc(c23)C1=O [Amonafide, amonafide, reference compound] | 6.57 µM | 6.31 µM | 55.5 µM | 15.4 µM | 7.98 µM | liver and spleen index ([13]; 7 days, compared to controls): obviously decreased; body weight change ([13]; tumor-bearing mice, 7 consecutive days): some degree of weight loss; Inhibition Rate (tumor weight) [7]: 43.79%; Tumor Weight [7]: 1.22 ± 0.13 g; No. Dead [7]: 0/9; life span increase vs control group [11]: 1.53 fold; median survival time (MST) [11]: 19.5 ± 3.6 days; Inhibition Rate (lung metastasis) [12]: 40.70%; Inhibition Rate (lung metastasis) ([12]; listed as amonafide): 40.7%; Metastatic Focus (No.) [12]: 65.25 ± 13.82; No. Dead [12]: 0/8
